Results reported in patent US8871767B2, “2-arylimidazo[1,2-B]pyridazine, 2-phenylimidazo[1,2-A]pyridine, and 2-phenylimidazo[1,2-A]pyrazine derivatives” (Hengrui (USA) Ltd., priority 2010, dated 2014).
Where two headings read alike, the source gives them in different places.

Experiments:
[1] = system: Hedgehog pathway activation on 10T1/2/Smo#3 cells (C3H10T1/2 cells transfected with human Smoothened receptor); assay: Hedgehog pathway activation on 10T1/2/Smo#3 cells measured by ALP activity; type: cell-based
Procedure, shortened: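 Inhibition of alkaline phosphatase induction, read fluorometrically from 4-methylumbelliferyl phosphate conversion, gave IC50 values; CellTiter-Blue tracked viability in parallel. Cells were the human Smo-transfected 10T1/2/Smo#3 pool, stimulated by 10-20% hShh conditioned medium or the Smo agonist SAG (500 nM).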

[2] = system: Hedgehog pathway activation (GLi-luciferase reporter) in Shh Light II reporter cells; assay: Hedgehog pathway activation on Shh Light II reporter cells measured by luciferase activity; type: cell-based
Procedure, shortened: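 Shh Light II reporter cells carrying a hedgehog-responsive GLi-luciferase reporter were stimulated either with 500 nM SAG, a direct Smoothened agonist, or with conditioned media containing human Sonic Hedgehog (hShh). Test compounds were evaluated for blocking this pathway activation, quantified by luciferase activity. Cell viability was monitored in parallel with the Celltiter-Blue® assay.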

[3] = Mus musculus, C3H 10T1/2, 10T1/2/Smo#3 cells, measured by ALP activity, read-out: ALP (IC50, inhibition of Hedgehog pathway activation)
[4] = Mus musculus, Shh Light II, hShh activation, read-out: Shh (IC50, inhibition of Hedgehog pathway activation)
[5] = Mus musculus, C3H 10T1/2, 10T1/2/Smo#3 cells, hShh activation, ALP activity, read-out: 10T1/2/Smo#3 ALP activity (hShh Activation)
[6] = Mus musculus, Shh Light II, SAG activation (500 nM SAG), read-out: Shh Light II luciferase activity (SAG activation)
[7] = Mus musculus, Shh Light II, hShh activation, read-out: Shh Light II luciferase activity (hShh activation)
[8] = hShh activation, read-out: Shh (IC50, inhibition of Hedgehog pathway activation)

IC50 [1, 3] [µM] | IC50 [2, 4] [µM] | SMILES | further results
1.2 | 1.07 | C[C@H]1CCCC[C@H]1Oc1ccc2nc(-c3ccc(C(F)(F)F)c(NC(=O)C(C)(C)C)c3)cn2n1 [Example 308, N-(5-(6-((1R,2S)-2-methylcyclohexyloxy)imidazo[1,2-b]pyridazin-2-yl)-2-(trifluoromethyl)phenyl)pivalamide] | –
0.326 | 0.213 | Cc1ccc(-c2nc3ccc(-c4ccccc4F)nn3c2C)cc1NC(=O)C(C)(C)C [Example 312, N-(5-(6-(2-fluorophenyl)-3-methylimidazo[1,2-b]pyridazin-2-yl)-2-methylphenyl)pivalamide] | –
– | 0.323 | C#Cc1ccc(-c2cn3nc(-c4ccccc4F)ccc3n2)cc1NC(=O)C(C)(C)C [Example 321, N-(2-ethynyl-5-(6-(2-fluorophenyl)imidazo[1,2-b]pyridazin-2-yl)phenyl)pivalamide] | IC50 [1, 5]: 0.3 to 3 µM; IC50 [2, 6]: 0.3 to 3 µM; IC50 [2, 7]: < 0.3 µM
0.213 | 0.278 | CC(C)(C)C(=O)Nc1cc(-c2cn3nc(-c4cccnc4Cl)ccc3n2)ccc1C(F)(F)F [Example 334, N-(5-(6-(2-chloropyridin-3-yl)imidazo[1,2-b]pyridazin-2-yl)-2-(trifluoromethyl)phenyl)pivalamide] | –
0.109 | 0.123 | CC(C)(C)C(=O)Nc1cc(-c2cn3nc(N4CC[C@@H](O)C4)ccc3n2)ccc1C(F)(F)F [Example 341, (R)-N-(5-(6-(3-hydroxypyrrolidin-1-yl)imidazo[1,2-b]pyridazin-2-yl)-2-(trifluoromethyl)phenyl)pivalamide] | –
0.028 | 0.065 | CN(C)C1CCN(c2ccc3nc(-c4ccc(C(F)(F)F)c(NC(=O)C(C)(C)C)c4)cn3n2)C1 (stereo not shown) [Example 350, N-(5-(6-(3-(dimethylamino)pyrrolidin-1-yl)imidazo[1,2-b]pyridazin-2-yl)-2-(trifluoromethyl)phenyl)pivalamide] | –
0.014 | 0.011 | CCc1ccc(-c2cn3nc(-c4cccnc4C(F)(F)F)ccc3n2)cc1NC(=O)C(C)(C)C [Example 352, N-(2-ethyl-5-(6-(2-(trifluoromethyl)pyridin-3-yl)imidazo[1,2-b]pyridazin-2-yl)phenyl)pivalamide] | IC50 [1, 5]: < 0.3 µM; IC50 [2, 6]: < 0.3 µM; IC50 [2, 7]: < 0.3 µM
0.056 | 0.074 | Cc1ccc(-c2nc3ccc(-c4cccnc4C(F)(F)F)nn3c2C)cc1NC(=O)C(C)(C)C [Example 353, N-(2-methyl-5-(3-methyl-6-(2-(trifluoromethyl)pyridin-3-yl)imidazo[1,2-b]pyridazin-2-yl)phenyl)pivalamide] | –
0.554 | 0.332 | CC(C)(C)C(=O)Nc1cc(-c2cn3nc(N4CCCC(CO)C4)ccc3n2)ccc1C(F)(F)F (stereo not shown) [Example 354, N-(5-(6-(3-(hydroxymethyl)piperidin-1-yl)imidazo[1,2-b]pyridazin-2-yl)-2-(trifluoromethyl)phenyl)pivalamide] | –
0.514 | 0.309 | CC(C)(C)C(=O)Nc1cc(-c2cn3nc(N4CCCC(C(F)(F)F)C4)ccc3n2)ccc1C(F)(F)F (stereo not shown) [Example 356, N-(2-(trifluoromethyl)-5-(6-(3-(trifluoromethyl)piperidin-1-yl)imidazo[1,2-b]pyridazin-2-yl)phenyl)pivalamide] | –
0.11 | 0.084 | Cc1ccc(-c2cn3nc(N4CCC(N(C)C)C4)ccc3n2)cc1NC(=O)C(C)(C)C (stereo not shown) [Example 361, N-(5-(6-(3-(dimethylamino)pyrrolidin-1-yl)imidazo[1,2-b]pyridazin-2-yl)-2-methylphenyl)pivalamide] | –

Continued, compound first:

SMILES | IC50 [1, 3] [µM] | IC50 [2, 4] [µM] | further results
CC1CCCCC1Oc1ccc2nc(-c3ccc(C(F)(F)F)c(NC(=O)C(C)(C)C)c3)cn2n1 (stereo not shown) [Example 307, N-(5-(6-(2-methylcyclohexyloxy)imidazo[1,2-b]pyridazin-2-yl)-2-(trifluoromethyl)phenyl)pivalamide] | 0.4 | 0.352 | –
CC(C)(C)C(=O)Nc1cc(-c2cn3nc(OCCN4CCCCC4)ccc3n2)ccc1C(F)(F)F [Example 309, N-(5-(6-(2-(piperidin-1-yl)ethoxy)imidazo[1,2-b]pyridazin-2-yl)-2-(trifluoromethyl)phenyl)pivalamide] | 0.973 | 0.339 | –
CC(C)(C)C(=O)Nc1cc(-c2cn3nc(OC4CCOCC4)ccc3n2)ccc1C(F)(F)F [Example 310, N-(5-(6-(tetrahydro-2H-pyran-4-yloxy)imidazo[1,2-b]pyridazin-2-yl)-2-(trifluoromethyl)phenyl)pivalamide] | 1.78 | 0.721 | –
Cc1ccc(-c2nc3ccc(Cl)nn3c2C)cc1NC(=O)C(C)(C)C [Example 311, N-(5-(6-chloro-3-methylimidazo[1,2-b]pyridazin-2-yl)-2-methylphenyl)pivalamide] | 2.42 | 2.08 | –
Cc1ccc(-c2nc3ccc(N4CCC(O)CC4)nn3c2C)cc1NC(=O)C(C)(C)C [Example 313, N-(5-(6-(4-hydroxypiperidin-1-yl)-3-methylimidazo[1,2-b]pyridazin-2-yl)-2-methylphenyl)pivalamide] | 0.636 | 0.826 | IC50 [1, 5]: 0.3 to 3 µM; IC50 [2, 6]: 0.3 to 3 µM; IC50 [2, 7]: 0.3 to 3 µM
CC(C)(C)C(=O)Nc1cc(-c2cn3nc(N4CCC(O)C4)ccc3n2)ccc1C(F)(F)F (stereo not shown) [Example 337, N-(5-(6-(3-hydroxypyrrolidin-1-yl)imidazo[1,2-b]pyridazin-2-yl)-2-(trifluoromethyl)phenyl)pivalamide] | 0.194 | – | IC50 [2, 8]: 0.308 µM
CC(C)(C)C(=O)Nc1cc(-c2cn3nc(N4CC[C@H](O)C4)ccc3n2)ccc1C(F)(F)F [Example 340, (S)-N-(5-(6-(3-hydroxypyrrolidin-1-yl)imidazo[1,2-b]pyridazin-2-yl)-2-(trifluoromethyl)phenyl)pivalamide] | 0.114 | 0.115 | –
Cc1ccc(-c2cn3nc(N4CC[C@H](O)C4)ccc3n2)cc1NC(=O)C(C)(C)C [Example 346, (S)-N-(5-(6-(3-hydroxypyrrolidin-1-yl)imidazo[1,2-b]pyridazin-2-yl)-2-methylphenyl)pivalamide] | 0.023 | 0.044 | IC50 [1, 5]: < 0.3 µM; IC50 [2, 6]: < 0.3 µM; IC50 [2, 7]: < 0.3 µM
Cc1ccc(-c2cn3nc(N4CC[C@@H](O)C4)ccc3n2)cc1NC(=O)C(C)(C)C [Example 347, (R)-N-(5-(6-(3-hydroxypyrrolidin-1-yl)imidazo[1,2-b]pyridazin-2-yl)-2-methylphenyl)pivalamide] | 0.022 | 0.046 | –
CNC1CCN(c2ccc3nc(-c4ccc(C(F)(F)F)c(NC(=O)C(C)(C)C)c4)cn3n2)C1 (stereo not shown) [Example 349, N-(5-(6-(3-(methylamino)pyrrolidin-1-yl)imidazo[1,2-b]pyridazin-2-yl)-2-(trifluoromethyl)phenyl)pivalamide] | 0.009 | 0.045 | –
CC(=O)NC1CCN(c2ccc3nc(-c4ccc(C(F)(F)F)c(NC(=O)C(C)(C)C)c4)cn3n2)C1 (stereo not shown) [Example 351, N-(5-(6-(3-acetamidopyrrolidin-1-yl)imidazo[1,2-b]pyridazin-2-yl)-2-(trifluoromethyl)phenyl)pivalamide] | 0.021 | 0.038 | –
CC(C)(C)C(=O)Nc1cc(-c2cn3nc(N4CCSCC4)ccc3n2)ccc1C(F)(F)F [Example 355, N-(5-(6-thiomorpholinoimidazo[1,2-b]pyridazin-2-yl)-2-(trifluoromethyl)phenyl)pivalamide] | 0.24 | 0.142 | –
CC(C)(C)C(=O)Nc1cc(-c2cn3nc(N4CCC[C@@H](O)C4)ccc3n2)ccc1C(F)(F)F [Example 357, (R)-N-(5-(6-(3-hydroxypiperidin-1-yl)imidazo[1,2-b]pyridazin-2-yl)-2-(trifluoromethyl)phenyl)pivalamide] | 0.445 | 0.151 | –
CC(C)(C)C(=O)Nc1cc(-c2cn3nc(N4CCC[C@H](O)C4)ccc3n2)ccc1C(F)(F)F [Example 358, (S)-N-(5-(6-(3-hydroxypiperidin-1-yl)imidazo[1,2-b]pyridazin-2-yl)-2-(trifluoromethyl)phenyl)pivalamide] | 0.387 | 0.225 | –
CC(C)(C)C(=O)Nc1cc(-c2cn3nc(N(CCO)CCO)ccc3n2)ccc1C(F)(F)F [Example 359, N-(5-(6-(bis(2-hydroxyethyl)amino)imidazo[1,2-b]pyridazin-2-yl)-2-(trifluoromethyl)phenyl)pivalamide] | 1.91 | 1.85 | –
CNC1CCN(c2ccc3nc(-c4ccc(C)c(NC(=O)C(C)(C)C)c4)cn3n2)C1 (stereo not shown) [Example 360, N-(2-methyl-5-(6-(3-(methylamino)pyrrolidin-1-yl)imidazo[1,2-b]pyridazin-2-yl)phenyl)pivalamide] | – | – | IC50 ([1]; 10T1/2/Smo#3 cells, measured by ALP activity, read-out: ALP (IC50, inhibition of Hedgehog pathway activation)): 0.032 µM; IC50 [2, 8]: 0.026 µM
CC(=O)NC1CCN(c2ccc3nc(-c4ccc(C)c(NC(=O)C(C)(C)C)c4)cn3n2)C1 (stereo not shown) [Example 362, N-(5-(6-(3-acetamidopyrrolidin-1-yl)imidazo[1,2-b]pyridazin-2-yl)-2-methylphenyl)pivalamide] | 0.155 | 0.104 | –
